Measured values from paper PMC4338040, “Design of a Multicomponent Peptide-Woven Nanocomplex for Delivery of siRNA” (PLoS ONE, 2015).

Each substance was assayed on siRNA (assay: SPR analysis of peptide binding to immobilized siRNA). Conditions: peptide with sHGP-9r (19:1 molar ratios), 10, 5, 2.5 and 1.25 μM, biotinylated siRNA on streptavidin chip, 25°C.
Experimental: The dynamics of PwSN formation were studied by SPR analysis (SR7500 DC, Reichert Inc, Depew, NY). 5′-Biotinylated siRNAs were diluted to 1 μM in HBS buffer (10 mM HEPES, pH 7.4, 150 mM NaCl, 3.4 mM EDTA, 0.005% Tween20), heated at 85°C for 10 min, cooled to room temperature, diluted to 20 fmol/μl in running buffer (10 mM HEPES, pH 7.4, 150 mM NaCl, 62.5 μg/ml bovine serum albumin, 125 μg/ml tRNA, 1 mM dithiothreitol, 0.05% Tween20), and injected at 10 μl/min. 50–100 response units of siRNA were coated per flow channel on streptavidin-coated sensor chip (NeutrAvidin Surface chip; Reichert Analytical Instrument, Depew, NY). 2-min injections of four different peptide concentrations (10, 5, 2.5, and 1.25 μ M) were injected over the sensor chip surface at 25°C with a flow rate of 25 μl/min. The surface was regenerated by removing bound peptides with a 180-s 2 M NaCl injection and 20-s 0.1% SDS followed by a binding buffer injection to rinse the needle. Sensorgrams were fit to kinetic titration model using Clamp program. To monitor dissociation between peptide and siRNA upon heparan sulfate competition, The 2.5 μM of peptides were injected to reach saturated binding and different concentrations of heparan sulfate were injected.

Row | binding affinity for siRNA (in words) | Substance
1 | moderate affinity | CRKRLDRNCggRRRRARRRR [I4R-9r(A1), I4R-9r variant with one arginine of 9r replaced by alanine]
2 | lowest affinity | CRKRLDRNCggRRARRRARR [I4R-9r(A2), I4R-9r variant with two alanine substitutions]
3 | strongest binding affinity | CRKRLDRNC-GG-RRRRRRRRR [I4R-9r, interleukin-4 receptor-targeting peptide (I4R) connected by GG to nine D-arginine peptide]
4 | lowest affinity | CRKRLDRNCggRARRARRAR [I4R-9r(A3), I4R-9r variant with three alanine substitutions]
5 | moderate affinity | CRKRLDRNCggRRARRRRRR [I4R-9r(A1*), I4R-9r variant with one arginine of 9r replaced by alanine, other position]

Each substance was assayed on siRNA (assay: Gel retardation assay of siRNA encapsulation). Conditions: 2% agarose, 100 pmol siRNA mixed with peptide 30 min at room temperature, ratios 1:5 to 1:50.
Type: physicochemical
Experimental: Peptide-woven siRNA nanocomplexes (PwSN) were prepared by mixing siRNA in diethylpyrocarbonate (DEPC)-treated water (100 pmoles) with peptide carrier with a molar ratio of 1:5 to 1:50 (siRNA: peptide) for 30 min at room temperature. The samples were subjected on 2% agarose gels electrophoresis to examine siRNA encapsulation. To test the stability of the siRNA nanocomplex against RNase A, the nanocomplex containing 100 pmol of siRNA mixed with 20-fold molar excess of peptides, then was incubated in the presence or absence of RNase A (0.2 μg) for up to 6 h at 37°C. After incubation, the RNase A activity was inhibited by addition of 2% sodium dodecyl sulfate (SDS) and subjected to agarose gel electrophoresis.

Row | siRNA:peptide molar ratios at which siRNA is encapsulated | Substance
6 | between 1:20 and 1:50 | CRKRLDRNC-GG-RRRRRRRRR [I4R-9r, interleukin-4 receptor-targeting peptide (I4R) connected by GG to nine D-arginine peptide]
